Results published in patent US11999727B2 (Tango Therapeutics, Inc., priority 2020, dated 2024).

What was measured:
[1] = molecular target: T1, PRMT5 (Homo sapiens, UniProt O14744); assay: PRMT5 biochemical IC50 assay with SAM as cofactor; settings: PRMT5, SAM as cofactor; read-out: SAM IC50
T1 construct: purchased Viva (custom protein)

[2] = molecular target: T1, PRMT5; assay: PRMT5 biochemical IC50 assay with MTA as cofactor; settings: PRMT5, MTA as cofactor; read-out: MTA IC50
[3] = system: HAP1 MTAP-deleted cell line; assay: Viability assay, MTAP-deleted cell line; type: cell-based; settings: Homo sapiens, HAP1, viability assay, MTAP-deleted cell line; read-out: HAP1 MTAP deleted viability
Description: Table 1 additionally indicates IC50 values in a viability assay for the MTAP-deleted cell line (column 10), indicating the effect of treatment with compound on cell survival.

[4] = system: HAP1 MTAP-intact cell line; assay: SDMA in-cell western assay, HAP1 MTAP-intact; type: cell-based; settings: Homo sapiens, HAP1, SDMA in-cell western, HAP1 MTAP-intact; read-out: MTAP HAP1 intact IC50
In short: (§1)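 Isogenic HAP1 pair: the MTAP-intact line expresses endogenous MTAP, and the deleted line is MTAP-null. Symmetric dimethylarginine was detected by in-cell western and IC50 values derived for each line.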

[5] = system: HAP1 MTAP-deleted cell line; assay: SDMA in-cell western assay, HAP1 MTAP-deleted; type: cell-based; settings: for IC50: Homo sapiens, HAP1, SDMA in-cell western, HAP1 MTAP-deleted; for MTAP intact/deleted ratio: SDMA in-cell western
In short: as §1

[6] = molecular target: T1, PRMT5; assay: PRMT5 biochemical IC50 assay with no cofactor; settings: PRMT5, no cofactor; read-out: No Cofactor/rel IC50
Description: Table 1 indicates IC50 values (μM) against PRMT5 for exemplary compounds in the presence of SAM as cofactor, with no cofactor, and with MTA as cofactor, respectively (columns 4-6). […] Ki values can be calculated from the IC50 values as described in the Examples section. As detailed in the Examples section, for the assay performed in the presence of SAM, IC50=Ki×1.5 (Ki=IC50/1.5).

[7] = read-out: HAP 1 MTAP deleted IC50
[8] = IC50 ratio HAP1 MTAP-intact / HAP1 MTAP-deleted

T1 sequence (O14744 whole entry): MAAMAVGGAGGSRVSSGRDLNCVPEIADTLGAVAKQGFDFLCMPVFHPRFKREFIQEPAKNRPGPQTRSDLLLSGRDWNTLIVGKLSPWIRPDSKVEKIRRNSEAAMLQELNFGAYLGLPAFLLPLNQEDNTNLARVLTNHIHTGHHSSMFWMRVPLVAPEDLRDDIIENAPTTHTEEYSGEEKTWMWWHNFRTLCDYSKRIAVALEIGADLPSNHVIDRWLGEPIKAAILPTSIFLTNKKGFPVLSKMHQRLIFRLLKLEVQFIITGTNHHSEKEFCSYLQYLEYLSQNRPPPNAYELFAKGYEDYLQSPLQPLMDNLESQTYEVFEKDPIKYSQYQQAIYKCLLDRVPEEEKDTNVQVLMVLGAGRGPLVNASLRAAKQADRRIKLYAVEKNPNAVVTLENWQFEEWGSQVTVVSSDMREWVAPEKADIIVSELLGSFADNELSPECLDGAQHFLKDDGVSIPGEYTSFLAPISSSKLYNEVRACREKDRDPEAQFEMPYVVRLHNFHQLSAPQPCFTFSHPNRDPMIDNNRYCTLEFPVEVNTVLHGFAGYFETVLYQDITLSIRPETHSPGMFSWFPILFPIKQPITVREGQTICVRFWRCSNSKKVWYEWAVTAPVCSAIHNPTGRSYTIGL
T1 sequence (Q9BQA1 whole entry partner): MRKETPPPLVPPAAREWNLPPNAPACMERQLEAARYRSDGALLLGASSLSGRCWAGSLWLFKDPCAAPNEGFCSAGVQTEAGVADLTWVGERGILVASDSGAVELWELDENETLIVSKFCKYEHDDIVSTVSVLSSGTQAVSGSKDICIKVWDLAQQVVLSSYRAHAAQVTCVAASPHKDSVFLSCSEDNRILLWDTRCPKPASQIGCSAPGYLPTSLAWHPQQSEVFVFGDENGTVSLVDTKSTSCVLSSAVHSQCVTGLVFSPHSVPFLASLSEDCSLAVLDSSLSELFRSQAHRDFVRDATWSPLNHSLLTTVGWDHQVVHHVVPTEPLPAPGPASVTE

C[C@@H]1CC[C@@H](c2ccc(NS(C)(=O)=O)nc2)N(C(=O)C(=O)Nc2cncc(C(N)=O)c2)C1 (single isomer, unassigned) [Compound 1003]
IC50 [1]: 50 to 500 nM | IC50 [2]: < 50 nM | IC50 [3]: > 10000 nM | IC50 [4]: > 1000 nM | IC50 [5, 7]: > 1000 nM | MTAP intact/deleted ratio [5, 8]: C (an IC50 ratio of less than 3 fold) | IC50 [6]: 50 to 500 nM

COc1ncc(NC(=O)C(=O)N2C[C@@H](C)CC[C@@H]2c2cc3[nH]ncc3s2)cc1C(N)=O (single isomer, unassigned) [Compound 1006, 2-methoxy-5-(2-(5-methyl-2-(1H-thieno[3,2-c]pyrazol-5-yl)piperidin-1-yl)-2-oxoacetamido)nicotinamide]
IC50 [1]: 50 to 500 nM | IC50 [2]: < 50 nM | IC50 [3]: < 1000 nM | IC50 [4]: > 1000 nM | IC50 [5, 7]: < 100 nM | MTAP intact/deleted ratio [5, 8]: A (an IC50 ratio greater than or equal to 10 fold) | IC50 [6]: 50 to 500 nM

C[C@@H]1CC[C@@H](c2cc[nH]n2)N(C(=O)C(=O)Nc2cncc(C(N)=O)c2)C1 (single isomer, unassigned) [Compound 1007]
IC50 [1]: > 500 nM | IC50 [2]: > 500 nM | IC50 [3]: > 10000 nM | IC50 [4]: > 1000 nM | IC50 [5, 7]: > 1000 nM | MTAP intact/deleted ratio [5, 8]: B (an IC50 ratio greater than or equal to 3 fold but lower than 10 fold) | IC50 [6]: > 500 nM

Cc1cc(NC(=O)C(=O)N2C[C@H](C)CC[C@H]2c2ccc(C(F)F)nc2)cnc1N (single isomer, unassigned) [Compound 1011]
IC50 [1]: > 500 nM | IC50 [2]: > 500 nM | IC50 [3]: > 10000 nM | IC50 [4]: > 1000 nM | IC50 [5, 7]: > 1000 nM | MTAP intact/deleted ratio [5, 8]: C (an IC50 ratio of less than 3 fold) | IC50 [6]: > 500 nM

Cc1cc(NC(=O)C(=O)N2C[C@@H](C)CC[C@@H]2c2ccc(C(F)(F)F)nc2)cnc1N (single isomer, unassigned) [Compound 1012]
IC50 [1]: 50 to 500 nM | IC50 [2]: < 50 nM | IC50 [3]: 1000 to 10000 nM | IC50 [4]: 100 to 1000 nM | IC50 [5, 7]: 100 to 1000 nM | MTAP intact/deleted ratio [5, 8]: C (an IC50 ratio of less than 3 fold) | IC50 [6]: 50 to 500 nM

CCc1ccc([C@@H]2CC[C@@H](C)CN2C(=O)C(=O)Nc2cnc(N)c(C)c2)cn1 (single isomer, unassigned) [Compound 1013]
IC50 [1]: 50 to 500 nM | IC50 [2]: < 50 nM | IC50 [3]: 1000 to 10000 nM | IC50 [4]: 100 to 1000 nM | IC50 [5, 7]: < 100 nM | MTAP intact/deleted ratio [5, 8]: B (an IC50 ratio greater than or equal to 3 fold but lower than 10 fold) | IC50 [6]: 50 to 500 nM

Cc1cc(NC(=O)C(=O)N2C[C@H](C)CC[C@H]2c2ccc(N3CCN(C)CC3)nc2)cnc1N (single isomer, unassigned) [Compound 1014]
IC50 [1]: 50 to 500 nM | IC50 [2]: < 50 nM | IC50 [3]: < 1000 nM | IC50 [4]: < 100 nM | IC50 [5, 7]: < 100 nM | MTAP intact/deleted ratio [5, 8]: B (an IC50 ratio greater than or equal to 3 fold but lower than 10 fold) | IC50 [6]: < 50 nM

Cc1cc(NC(=O)C(=O)N2C[C@H](C)CC[C@H]2c2ccc(C(F)(F)F)nc2)cnc1N (single isomer, unassigned) [Compound 1015]
IC50 [1]: > 500 nM | IC50 [2]: > 500 nM | IC50 [3]: > 10000 nM | IC50 [4]: > 1000 nM | IC50 [5, 7]: > 1000 nM | MTAP intact/deleted ratio [5, 8]: C (an IC50 ratio of less than 3 fold) | IC50 [6]: > 500 nM

CCc1ccc([C@H]2CC[C@H](C)CN2C(=O)C(=O)Nc2cnc(N)c(C)c2)cn1 (single isomer, unassigned) [Compound 1016]
IC50 [1]: > 500 nM | IC50 [2]: > 500 nM | IC50 [3]: > 10000 nM | IC50 [4]: > 1000 nM | IC50 [5, 7]: > 1000 nM | MTAP intact/deleted ratio [5, 8]: C (an IC50 ratio of less than 3 fold) | IC50 [6]: > 500 nM

Cc1cc(NC(=O)C(=O)N2C[C@@H](C)CC[C@@H]2c2ccc(N3CCN(C)CC3)nc2)cnc1N (single isomer, unassigned) [Compound 1017]
IC50 [1]: > 500 nM | IC50 [2]: > 500 nM | IC50 [3]: < 1000 nM | IC50 [4]: > 1000 nM | IC50 [5, 7]: > 1000 nM | MTAP intact/deleted ratio [5, 8]: C (an IC50 ratio of less than 3 fold) | IC50 [6]: > 500 nM

Cc1cc(NC(=O)C(=O)N2C[C@@H](C)CC[C@@H]2c2ccc(C(F)F)nc2)cnc1N (single isomer, unassigned) [Compound 1018]
IC50 [1]: 50 to 500 nM | IC50 [2]: < 50 nM | IC50 [3]: 1000 to 10000 nM | IC50 [4]: 100 to 1000 nM | IC50 [5, 7]: 100 to 1000 nM | MTAP intact/deleted ratio [5, 8]: B (an IC50 ratio greater than or equal to 3 fold but lower than 10 fold) | IC50 [6]: 50 to 500 nM

Cc1cc(NC(=O)C(=O)N2C[C@@H](C)CC[C@@H]2c2cscn2)cnc1N (single isomer, unassigned) [Compound 1020]
IC50 [1]: > 500 nM | IC50 [2]: < 50 nM | IC50 [3]: 1000 to 10000 nM | IC50 [4]: > 1000 nM | IC50 [5, 7]: 100 to 1000 nM | MTAP intact/deleted ratio [5, 8]: A (an IC50 ratio greater than or equal to 10 fold) | IC50 [6]: 50 to 500 nM

C[C@H]1CC[C@H](c2ccc3sc(C(F)(F)F)nc3c2)N(C(=O)C(=O)Nc2cncc(C(N)=O)c2)C1 (single isomer, unassigned) [Compound 1023]
IC50 [1]: 50 to 500 nM | IC50 [2]: < 50 nM | IC50 [3]: < 1000 nM | IC50 [4]: 100 to 1000 nM | IC50 [5, 7]: < 100 nM | MTAP intact/deleted ratio [5, 8]: A (an IC50 ratio greater than or equal to 10 fold) | IC50 [6]: < 50 nM

COc1ncc(NC(=O)C(=O)N2C[C@@H](C)CC[C@@H]2c2ccc3sc(C(F)(F)F)nc3c2)cc1C(N)=O (single isomer, unassigned) [Compound 1024]
IC50 [1]: 50 to 500 nM | IC50 [2]: < 50 nM | IC50 [3]: < 1000 nM | IC50 [4]: 100 to 1000 nM | IC50 [5, 7]: < 100 nM | MTAP intact/deleted ratio [5, 8]: A (an IC50 ratio greater than or equal to 10 fold) | IC50 [6]: < 50 nM

Cc1cc(NC(=O)C(=O)N2C[C@H](C)CC[C@H]2c2cscn2)cnc1N (single isomer, unassigned) [Compound 1028]
IC50 [1]: > 500 nM | IC50 [2]: > 500 nM | IC50 [3]: > 10000 nM | IC50 [4]: > 1000 nM | IC50 [5, 7]: > 1000 nM | MTAP intact/deleted ratio [5, 8]: C (an IC50 ratio of less than 3 fold) | IC50 [6]: > 500 nM

C[C@@H]1CC[C@@H](c2ccc3sc(C(F)(F)F)nc3c2)N(C(=O)C(=O)Nc2cncc(C(N)=O)c2)C1 (single isomer, unassigned) [Compound 1029]
IC50 [1]: > 500 nM | IC50 [2]: > 500 nM | IC50 [3]: > 10000 nM | IC50 [4]: > 1000 nM | IC50 [5, 7]: > 1000 nM | MTAP intact/deleted ratio [5, 8]: B (an IC50 ratio greater than or equal to 3 fold but lower than 10 fold) | IC50 [6]: > 500 nM

COc1ncc(NC(=O)C(=O)N2C[C@@H](C)CC[C@@H]2c2cscn2)cc1C(N)=O (single isomer, unassigned) [Compound 1033]
IC50 [1]: > 500 nM | IC50 [2]: > 500 nM | IC50 [3]: > 10000 nM | IC50 [4]: > 1000 nM | IC50 [5, 7]: > 1000 nM | MTAP intact/deleted ratio [5, 8]: B (an IC50 ratio greater than or equal to 3 fold but lower than 10 fold) | IC50 [6]: > 500 nM

Cc1cc(NC(=O)C(=O)N2C[C@@H](C)CC[C@@H]2c2ccc3c(cnn3C)c2)cnc1N (single isomer, unassigned) [Compound 1037]
IC50 [1]: > 500 nM | IC50 [2]: > 500 nM | IC50 [3]: > 10000 nM | IC50 [4]: > 1000 nM | IC50 [5, 7]: 100 to 1000 nM | MTAP intact/deleted ratio [5, 8]: A (an IC50 ratio greater than or equal to 10 fold) | IC50 [6]: > 500 nM

Cc1cc(NC(=O)C(=O)N2C[C@@H](C)CC[C@@H]2c2ccc3nn(C)cc3c2)cnc1N (single isomer, unassigned) [Compound 1040]
IC50 [1]: > 500 nM | IC50 [2]: > 500 nM | IC50 [3]: > 10000 nM | IC50 [4]: > 1000 nM | IC50 [5, 7]: 100 to 1000 nM | MTAP intact/deleted ratio [5, 8]: A (an IC50 ratio greater than or equal to 10 fold) | IC50 [6]: > 500 nM

COc1ncc(NC(=O)C(=O)N2C[C@H](C)CC[C@H]2c2cscn2)cc1C(N)=O (single isomer, unassigned) [Compound 1042]
IC50 [1]: 50 to 500 nM | IC50 [2]: < 50 nM | IC50 [3]: 1000 to 10000 nM | IC50 [4]: > 1000 nM | IC50 [5, 7]: < 100 nM | MTAP intact/deleted ratio [5, 8]: A (an IC50 ratio greater than or equal to 10 fold) | IC50 [6]: 50 to 500 nM

Cc1cc(NC(=O)C(=O)N2C[C@H](C)CC[C@H]2c2ccc3nn(C)cc3c2)cnc1N (single isomer, unassigned) [Compound 1044]
IC50 [1]: 50 to 500 nM | IC50 [2]: < 50 nM | IC50 [3]: < 1000 nM | IC50 [4]: 100 to 1000 nM | IC50 [5, 7]: < 100 nM | MTAP intact/deleted ratio [5, 8]: A (an IC50 ratio greater than or equal to 10 fold) | IC50 [6]: < 50 nM

Cc1cncc(NC(=O)C(=O)N2C[C@@H](C)CC[C@H]2c2cccc(F)c2)c1 (single isomer, unassigned) [Compound 1080]
IC50 [1]: > 500 nM | IC50 [2]: > 500 nM | IC50 [3]: > 10000 nM | IC50 [4]: > 1000 nM | IC50 ([5]; read-out: HAP1 MTAP deleted IC50): > 1000 nM | MTAP intact/deleted ratio ([5]; IC50 ratio HAP1 MTAP-intact vs HAP1 MTAP-deleted): C (an IC50 ratio of less than 3 fold) | IC50 [6]: > 500 nM
